From the supplement of paper PMC10307832

Key:
Assay in all cases: relative viability (nuclei count vs DMSO), 5 days (fraction); higher = more cells survive
[1] = compound: CC(=O)c1c(C)c2cnc(Nc3ccc(N4CCNCC4)cn3)nc2n(C2CCCC2)c1=O [Palbociclib] + O=C(CCCCCCC(=O)Nc1ccccc1)NO [Vorinostat] (partner 1 µM)
Summary of the method: (§1)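 The day after seeding in 1536-well plates, lung cancer cell lines were treated by pin tool with a single drug, or with a fixed anchor-drug dose together with five library-drug doses (not always all listed) in √10 steps. After 5 days, a combined fix-and-stain solution (final 0.05% Triton X-100, 1% formaldehyde, 1 ug/ml Hoechst) was added. Nuclei counted on 4× images gave relative viability as treated counts over vehicle counts, reported as the median of duplicate plates.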

[2] = compound: CC(=O)c1c(C)c2cnc(Nc3ccc(N4CCNCC4)cn3)nc2n(C2CCCC2)c1=O [Palbociclib] + N=C(N)NC(=N)NCCc1ccccc1 [Phenformin] (partner 250 µM)
Summary of the method: as §1

[3] = compound: CC(=O)c1c(C)c2cnc(Nc3ccc(N4CCNCC4)cn3)nc2n(C2CCCC2)c1=O [Palbociclib] + COc1cc2c(Oc3ccc(NC(=O)C4(C(=O)Nc5ccc(F)cc5)CC4)cc3F)ccnc2cc1OCCCN1CCOCC1 [Foretinib] (partner 0.25 µM)
Summary of the method: as §1

[4] = compound: CC(=O)c1c(C)c2cnc(Nc3ccc(N4CCNCC4)cn3)nc2n(C2CCCC2)c1=O [Palbociclib] + Cc1nc(NC(=O)N2CCC[C@H]2C(N)=O)sc1-c1ccnc(C(C)(C)C(F)(F)F)c1 [Alpelisib] (partner 2 µM)
Summary of the method: as §1

Cell Line	relative viability ([1]; first compound 0.01 µM)	relative viability ([1]; first compound 0.03162 µM)	relative viability ([1]; first compound 0.1 µM)	relative viability ([1]; first compound 0.3162 µM)	relative viability ([1]; first compound 1 µM)	relative viability ([2]; first compound 0.01 µM)	relative viability ([2]; first compound 0.1 µM)	relative viability ([2]; first compound 0.3162 µM)	relative viability ([2]; first compound 1 µM)	relative viability ([3]; first compound 0.01 µM)	relative viability ([3]; first compound 0.1 µM)	relative viability ([3]; first compound 0.3162 µM)	relative viability ([3]; first compound 1 µM)	relative viability ([4]; first compound 0.01 µM)	relative viability ([4]; first compound 0.1 µM)	relative viability ([4]; first compound 0.3162 µM)	relative viability ([4]; first compound 1 µM)	relative viability ([2]; first compound 0.03162 µM)	relative viability ([3]; first compound 0.03162 µM)	relative viability ([4]; first compound 0.03162 µM)
NCI-H23	0.617	0.531	0.406	0.509	0.411	0.795	0.704	0.781	0.506	0.954	1.11	0.962	0.69	0.705	0.585	0.588	0.432			
EMC-BAC-2	0.461	0.39	0.379	0.376	0.308	0.537	0.401	0.374	0.342	1	0.804	0.821	0.61	0.738	0.602	0.665	0.508	0.394	0.931	0.646
HCC-827	0.863	0.65	0.787	0.636	0.598	0.41	0.319	0.384	0.289	1.03	0.999	0.977	0.734	1.04	0.913	0.819	0.652	0.285	0.951	0.927
NCI-H647	0.576	0.313	0.616	0.409	0.458	0.639	0.379	0.464	0.257	1.21	1.13	1.07	0.964	1.33	0.979	1.02	0.532	0.382	1.17	0.986
NCI-H441	0.817	0.708	0.589	0.569	0.405	0.896	0.623	0.57	0.35	0.75	0.571	0.701	0.373		0.677	0.426	0.418	0.627	0.965	0.635
NCI-H520	0.728	0.57	0.565	0.47	0.372	0.5	0.348	0.407	0.227	0.837	0.522	0.551	0.373	0.855	0.503	0.552	0.431	0.321	0.563	0.749
EPLC-272H	0.535	0.647	0.46	0.401	0.245	0.316	0.265	0.291	0.198	0.794	0.572	0.689	0.435	1.13	0.808	0.69	0.658			
CAL-12T	0.781	0.747	0.595	0.581	0.505	0.603	0.429	0.421	0.324	1.01	0.901	0.791	0.674	1.11	0.84	0.652	0.603	0.475	0.898	1.05
NCI-H650	0.537		0.366	0.359	0.314	0.447	0.403	0.352	0.316	1.05	0.839	0.824	0.639	1.24	0.79	0.775	0.624	0.371	0.862	
HARA	0.446		0.384	0.608	0.511	0.509	0.309	0.258	0.203	0.828	0.763	0.534	0.332	0.82	0.557	0.405	0.31			0.718
LK-2	0.383	0.217	0.281	0.248	0.324	0.507	0.305	0.309	0.38	1.12	1.18	1.27	1.05	1.12	0.75	1.15	1.3			
NCI-H1975	0.712	0.649	0.597	0.579	0.469	0.388	0.325	0.273	0.3	0.932	0.899	0.828	0.81	0.634	0.543	0.469	0.353	0.384	0.853	0.549
NCI-H2023	0.721	0.281	0.54	0.515	0.303	0.405	0.321	0.319	0.218	0.929	0.556	0.474	0.322	0.663	0.427	0.475	0.247	0.381	0.523	0.589
NCI-H661	0.748	0.598	0.561	0.433	0.425	0.264	0.258	0.279	0.282	1.01	0.695	0.626	0.495	0.92	0.583	0.382	0.508	0.29	0.792	0.686
NCI-H2170	0.841	0.515	0.694	0.675	0.447	0.418	0.351	0.34	0.304	1.03	0.955	0.889	0.852	0.797	0.776	0.715	0.601	0.352	0.969	0.767
NCI-H1651	0.572	0.523	0.591	0.529	0.485	0.342	0.308	0.337	0.256	0.882	0.779	0.747	0.613	1.03	0.875	0.883	0.624	0.332	0.819	0.823
NCI-H1944	0.579	0.456	0.399	0.475	0.343	0.206	0.182	0.174	0.165	0.915	0.768	0.756	0.577	0.859	0.648	0.758	0.525	0.172	0.807	0.723

Cell Line	relative viability ([1]; first compound 0.01 µM)	relative viability ([1]; first compound 0.03162 µM)	relative viability ([1]; first compound 0.1 µM)	relative viability ([1]; first compound 0.3162 µM)	relative viability ([1]; first compound 1 µM)	relative viability ([2]; first compound 0.01 µM)	relative viability ([2]; first compound 0.1 µM)	relative viability ([2]; first compound 0.3162 µM)	relative viability ([2]; first compound 1 µM)	relative viability ([3]; first compound 0.01 µM)	relative viability ([3]; first compound 0.1 µM)	relative viability ([3]; first compound 0.3162 µM)	relative viability ([3]; first compound 1 µM)	relative viability ([4]; first compound 0.01 µM)	relative viability ([4]; first compound 0.1 µM)	relative viability ([4]; first compound 0.3162 µM)	relative viability ([4]; first compound 1 µM)	relative viability ([2]; first compound 0.03162 µM)	relative viability ([3]; first compound 0.03162 µM)	relative viability ([4]; first compound 0.03162 µM)
NCI-H1437	0.873	0.74	0.651	0.493	0.35	0.321	0.258	0.237	0.199	1.27	0.992	0.991	0.783	0.946	0.857	0.889	0.48	0.445	1.16	1.06
EKVX	0.702	0.509	0.625	0.549	0.483	0.23	0.238	0.245	0.145	0.907	0.748	0.757	0.463	1.04	0.661	0.604	0.401	0.192	0.412	0.716
NCI-H2347	0.558	0.603	0.424	0.487	0.4	0.612	0.285	0.26	0.182	0.917	0.844		0.546	1.15	0.642	0.789	0.597			0.979
SK-MES-1	1.08	0.902	0.735	0.763	0.395	0.661	0.455	0.376	0.18	1.09	0.781	0.687	0.502	0.841	0.507	0.56	0.356	0.573	0.834	0.815
H3255	0.907	0.688	0.687	0.68	0.549	0.38	0.319	0.368	0.287	0.879	0.693	0.641	0.57	0.714	0.469	0.488	0.36	0.361	0.898	0.599
NCI-H1395	0.844	0.705	0.602	0.724	0.496	0.408	0.368	0.412	0.41	0.867	0.846	0.828	0.713	1.05	0.79	0.875	0.686	0.408	0.876	0.835
NCI-H2405	1.01	1	0.82	0.837	0.631	0.387	0.327	0.36	0.317	1.02	0.884	0.822	0.675	0.792	0.441	0.678	0.494	0.344	0.972	
UMC-11	0.308	0.42	0.369	0.312	0.242	0.303	0.292	0.292	0.24	1.01	0.698	0.459	0.275	0.996	0.604	0.459	0.254	0.278	0.86	0.931
LCLC-97TM1	0.698		0.423	0.363	0.249	0.41	0.414	0.351	0.227	0.861	0.854	0.67	0.514	0.291	0.189	0.209	0.189	0.32	0.883	
NCI-H322M	0.837	0.784	0.602	0.55	0.454	0.741	0.553	0.502	0.409	0.977	0.616	0.641	0.414	0.805	0.689	0.676	0.496	0.605	0.776	0.895
NCI-H1355	0.619	0.578	0.548	0.629	0.465	0.511	0.387	0.385	0.26	1.03	0.902	0.85	0.715	0.823	0.797	0.779	0.501	0.39	0.894	
COR-L23	0.461	0.346	0.328	0.244	0.223	0.438	0.304	0.345	0.263	0.95	0.911	0.729	0.58	0.671	0.516	0.37	0.311	0.37	0.745	0.535
NCI-H1915	0.487		0.438	0.525	0.378	0.365	0.37	0.346	0.323	1.04	1.06	0.95	0.905	1.05	0.982	0.959	0.896	0.308	0.968	1.01
NCI-H2126	0.718	0.381	0.535	0.545	0.325	0.494	0.381	0.413	0.392	1.28	0.904	0.78	0.603	0.793	0.679	0.591	0.414	0.418	0.93	0.748
LCLC-103H	0.743	0.512	0.62	0.668	0.445	0.33	0.318	0.248	0.223	0.782	0.8	0.522	0.481	0.756	0.821	0.796	0.688	0.28	0.619	1.03
HCC-15	0.871		0.768	0.684	0.581	0.463	0.405	0.421	0.323	1	0.902	0.892	0.716	0.878	0.793	0.719	0.704			
NCI-H838	0.71	0.623	0.543	0.478	0.314	0.628	0.402	0.467	0.202	1.03	0.71	0.823	0.515	1.03	0.829	0.883	0.441	0.562	0.955	0.918
